Results published in the CheMixHub viscosity set.
± gives the uncertainty stated by the source.

Test: xn = mol fraction of the nth substance listed
Details: 101 kPa

C=C(C)C(=O)OCC + CC#N
viscosity [mPa·s]
Details	298.15 K	303.15 K	308.15 K	313.15 K	318.15 K
x2 = 0.0556	0.6285 ± 0.013	0.5725 ± 0.012	0.5246 ± 0.011	0.4857 ± 0.01	0.4542 ± 0.0097
x2 = 0.1112	0.6154 ± 0.013	0.562 ± 0.012	0.5162 ± 0.011	0.479 ± 0.01	0.4489 ± 0.0096
x2 = 0.1631	0.6027 ± 0.013	0.5516 ± 0.012	0.5079 ± 0.011	0.4722 ± 0.01	0.4433 ± 0.0095
x2 = 0.2147	0.5894 ± 0.013	0.5408 ± 0.012	0.499 ± 0.011	0.4649 ± 0.0099	0.4372 ± 0.0093
x2 = 0.2795	0.5723 ± 0.012	0.5266 ± 0.011	0.4872 ± 0.01	0.455 ± 0.0097	0.4287 ± 0.0092
x2 = 0.3446	0.5545 ± 0.012	0.5115 ± 0.011	0.4746 ± 0.01	0.4443 ± 0.0095	0.4194 ± 0.009
x2 = 0.4132	0.5349 ± 0.011	0.495 ± 0.011	0.4606 ± 0.0098	0.4322 ± 0.0092	0.4088 ± 0.0087
x2 = 0.4819	0.5147 ± 0.011	0.4777 ± 0.01	0.4458 ± 0.0095	0.4194 ± 0.0089	0.3974 ± 0.0085
x2 = 0.5597	0.4911 ± 0.01	0.4574 ± 0.0097	0.4283 ± 0.0091	0.404 ± 0.0086	0.3836 ± 0.0082
x2 = 0.6375	0.4667 ± 0.0099	0.4364 ± 0.0093	0.41 ± 0.0087	0.3878 ± 0.0083	0.3689 ± 0.0079
x2 = 0.7251	0.4385 ± 0.0093	0.4119 ± 0.0088	0.3885 ± 0.0083	0.3686 ± 0.0079	0.3515 ± 0.0075
x2 = 0.8113	0.4101 ± 0.0087	0.387 ± 0.0082	0.3666 ± 0.0078	0.349 ± 0.0074	0.3334 ± 0.0071
x2 = 0.9014	0.3798 ± 0.0081	0.3604 ± 0.0077	0.343 ± 0.0073	0.3277 ± 0.007	0.3137 ± 0.0067
x2 = 0.9542	0.3618 ± 0.0077	0.3445 ± 0.0073	0.3289 ± 0.007	0.3148 ± 0.0067	0.3018 ± 0.0065
